From publication PMC4337798 (Biochimica et biophysica acta, 2010)

Legend:
[1] = target: T1, gastric H,K-ATPase (HKα1) (Mus musculus, UniProt Q64436); experiment: K-ATPase activity dose response in gastric membrane vesicles; type: cell-based
[2] = target: T1, gastric H,K-ATPase (HKα1); experiment: as above; type: cell-based; conditions: read-out: % inhibition at 100 μM

T1 sequence (Q64436 whole entry): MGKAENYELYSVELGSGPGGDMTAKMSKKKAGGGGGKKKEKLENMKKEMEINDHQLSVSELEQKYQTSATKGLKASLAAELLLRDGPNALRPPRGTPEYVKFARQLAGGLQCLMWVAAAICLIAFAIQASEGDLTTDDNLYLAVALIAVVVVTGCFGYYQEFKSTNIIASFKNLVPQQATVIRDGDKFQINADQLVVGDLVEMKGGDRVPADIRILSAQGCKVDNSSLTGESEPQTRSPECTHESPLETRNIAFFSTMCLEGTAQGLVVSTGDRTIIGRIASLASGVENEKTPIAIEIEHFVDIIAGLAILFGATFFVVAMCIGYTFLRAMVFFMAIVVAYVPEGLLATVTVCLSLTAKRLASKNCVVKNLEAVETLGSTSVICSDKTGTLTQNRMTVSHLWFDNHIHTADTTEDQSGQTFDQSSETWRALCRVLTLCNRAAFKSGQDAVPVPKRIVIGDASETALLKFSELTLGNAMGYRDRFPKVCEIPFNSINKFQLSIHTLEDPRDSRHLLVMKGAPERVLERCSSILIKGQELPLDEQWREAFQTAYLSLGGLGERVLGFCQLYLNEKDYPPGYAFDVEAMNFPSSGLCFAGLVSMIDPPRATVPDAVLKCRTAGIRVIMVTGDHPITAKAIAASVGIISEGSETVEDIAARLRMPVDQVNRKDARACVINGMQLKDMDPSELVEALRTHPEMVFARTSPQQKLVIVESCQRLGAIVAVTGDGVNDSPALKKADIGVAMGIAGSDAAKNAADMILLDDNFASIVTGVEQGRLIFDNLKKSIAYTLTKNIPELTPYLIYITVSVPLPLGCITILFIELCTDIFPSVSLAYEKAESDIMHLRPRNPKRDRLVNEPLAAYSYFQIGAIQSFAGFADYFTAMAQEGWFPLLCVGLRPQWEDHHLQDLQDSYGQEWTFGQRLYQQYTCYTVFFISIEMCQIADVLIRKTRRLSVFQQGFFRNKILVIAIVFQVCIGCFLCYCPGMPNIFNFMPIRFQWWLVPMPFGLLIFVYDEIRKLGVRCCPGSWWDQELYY
T1 sequence (P50992 whole entry partner): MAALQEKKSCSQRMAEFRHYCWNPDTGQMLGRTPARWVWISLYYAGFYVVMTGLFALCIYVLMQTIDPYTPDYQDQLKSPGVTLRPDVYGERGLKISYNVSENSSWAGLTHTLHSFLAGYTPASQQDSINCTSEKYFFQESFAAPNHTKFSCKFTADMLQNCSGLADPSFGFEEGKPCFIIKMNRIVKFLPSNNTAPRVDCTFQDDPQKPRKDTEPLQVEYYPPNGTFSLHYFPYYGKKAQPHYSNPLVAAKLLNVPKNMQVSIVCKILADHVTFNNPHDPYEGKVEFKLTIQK

SMILES	K-ATPase activity dose response in gastric membrane vesicles [1]	inhibition at 100 µM [2] [%]
NC(=NCc1ccccc1)NC(=O)c1nc(Cl)c(N)nc1N [benzamil]	Amiloride derivatives benzamil and EIPA had similar inhibitory effects on the gastric K-ATPase activity	
CCN(c1nc(N)c(C(=O)N=C(N)N)nc1Cl)C(C)C [EIPA, 5-N-ethyl-N-isopropylamiloride]	Amiloride derivatives benzamil and EIPA had similar inhibitory effects on the gastric K-ATPase activity	
N=C(N)NC(=O)c1nc(Cl)c(N)nc1N [amiloride]		~65
